Structures can show the parent of a compound that is named as a salt.

Experimental findings from US12509474B2, “Inhibitors of complement factors and uses thereof” (Annexon, Inc., priority 2020, dated 2025) are described below.

For this experiment, the target named is T1, human C1s protein (Homo sapiens, UniProt P09871).
T1 construct: A104
T1 sequence (P09871 16-688): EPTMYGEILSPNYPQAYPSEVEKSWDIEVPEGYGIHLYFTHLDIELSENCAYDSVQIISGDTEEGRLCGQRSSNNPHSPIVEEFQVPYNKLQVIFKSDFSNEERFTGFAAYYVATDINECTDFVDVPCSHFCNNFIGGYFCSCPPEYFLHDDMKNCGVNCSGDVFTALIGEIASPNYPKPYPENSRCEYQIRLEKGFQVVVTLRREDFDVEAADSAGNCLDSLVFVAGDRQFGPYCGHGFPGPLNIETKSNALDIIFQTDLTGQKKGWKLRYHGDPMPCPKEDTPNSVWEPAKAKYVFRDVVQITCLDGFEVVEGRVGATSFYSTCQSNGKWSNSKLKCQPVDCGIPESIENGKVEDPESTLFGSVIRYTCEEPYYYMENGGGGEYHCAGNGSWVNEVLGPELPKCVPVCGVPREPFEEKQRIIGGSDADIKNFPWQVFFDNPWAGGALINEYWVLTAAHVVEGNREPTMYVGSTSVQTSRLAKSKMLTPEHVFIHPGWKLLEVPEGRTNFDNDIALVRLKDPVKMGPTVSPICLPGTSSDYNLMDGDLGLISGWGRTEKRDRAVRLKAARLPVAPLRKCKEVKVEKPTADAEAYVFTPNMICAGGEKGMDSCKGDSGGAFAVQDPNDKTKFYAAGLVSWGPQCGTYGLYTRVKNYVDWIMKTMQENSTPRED
Nature of the experiment: C1s enzymatic assay (hydrolysis of YLGR-Rh110-dPro). It counts as biochemical. The settings on record: substrate YLGR-Rh110-dPro 20 μM, 15 min pre-incubation, 60 min RT, fluorescence, read-out: hC1s pIC50 (converted). Here is the method:
Compound Testing in the C1s Enzymatic Assay
The enzyme cleaves the substrate with the release of Rh110 which is highly fluorescent. C1s inhibitors prevent the hydrolysis of the substrate thus resulting in a decrease of the signal.
On the day of the experiment 0.1 mg/mL BSA (Sigma, B4287) is added fresh to the buffer. The test item stock solutions are serially diluted 1:3 or 1:4 or 1:5 with DMSO, 11-point curves, in a 384-well compound plate. Nafamostat concentration curve is always included in the assay plate as a reference control.
The high controls are prepared dispensing in 0.25 μL DMSO in column 23, rows AH or AP and low controls with 0.25 μL of 0.1 M Nafamostat. […] The YLGR-Rh110-dPro substrate is prepared as 2× of the final assay concentration of 20 μM. 1/well of 2× enzyme solution is dispensed and pre-incubated for 15 min with the compounds. The enzymatic reaction is then started with 5 μL/well of the 2× substrate solution.
As for `COc1ccc(B(O)O)cc1-c1ccc2c(N)nncc2c1` [Example 2, [3-(1-aminophthalazin-6-yl)-4-methoxyphenyl]boronic Acid Formic Acid Salt], the IC50 was 6.31 nM.

On to `Cc1cc(OC(F)F)c(-c2ccc3c(N)cnnc3c2)cc1B(O)O` [Example 108, [5-(4-aminocinnolin-7-yl)-4-(difluoromethoxy)-2-methylphenyl]boronic Acid], for which the IC50 is 1.86 nM.

With `Nc1cnnc2cc(-c3cc(B(O)O)ccc3OCc3cnsc3)ccc12` [Example 98, [3-(4-aminocinnolin-7-yl)-4-[(1,2-thiazol-4-yl)methoxy]phenyl]boronic Acid], the IC50 is 0.871 nM.

Take `Cc1nnc(N)c2ccc(-c3cnc(C(F)(F)F)c(B(O)O)c3)cc12` [Example 71, [5-(1-amino-4-methylphthalazin-6-yl)-2-(trifluoromethyl)pyridin-3-yl]boronic Acid]: the IC50 was 2.95 nM.

`COc1cc(C)c(B(O)O)cc1-c1ccc2c(N)cnnc2c1` [Example 134, [5-(4-aminocinnolin-7-yl)-4-methoxy-2-methylphenyl]boronic Acid Formic Acid Salt]: the IC50 is 2.09 nM.

Take `COc1cc(C(F)(F)F)c(B(O)O)cc1-c1ccc2c(N)nnc(C)c2c1` [Example 37, [5-(1-amino-4-methylphthalazin-6-yl)-4-methoxy-2-(trifluoromethyl)phenyl]boronic Acid Formic Acid Salt]: the IC50 is 1.58 nM.

Take `COc1cc2c(cc1-c1ccc3c(N)cnnc3c1)B(O)OCC2` [Example 46, 7-(1-hydroxy-6-methoxy-3,4-dihydro-2,1-benzoxazonin-7-yl)cinnolin-4-amine Trifluoroacetic Acid Salt]: the IC50 is 7.41 nM.

Regarding `O=CO.[2H]C([2H])([2H])Oc1ccc(B(O)O)cc1-c1ccc2c(N)cnnc2c1` [Example 159, [3-(4-aminocinnolin-7-yl)-4-(^2H3)methoxyphenyl]boronic Acid Formic Acid Salt], the IC50 is 1.26 nM.

Regarding `Nc1cnnc2cc(-c3cc(B(O)O)ccc3OCCC3CC3)ccc12` [Example 115, [3-(4-aminocinnolin-7-yl)-4-(2-cyclopropylethoxy)phenyl]boronic Acid], the IC50 was 0.794 nM.

For `COc1cc(F)c(B(O)O)cc1-c1ccc2c(N)nnc(C)c2c1` [Example 25, [5-(1-amino-4-methylphthalazin-6-yl)-2-fluoro-4-methoxyphenyl]boronic Acid], the IC50 was 1.7 nM.

In the case of `Cc1nnc(N)c2ccc(-c3ccc(NC(=O)C(C)C)c(B(O)O)c3)cc12` [Example 89, [5-(1-amino-4-methylphthalazin-6-yl)-2-(2-methylpropanamido)phenyl]boronic Acid], the IC50 was 5.89 nM.

Take `COc1ccc(B(O)O)c(F)c1-c1ccc2c(N)cnnc2c1` [Example 48, [3-(4-aminocinnolin-7-yl)-2-fluoro-4-methoxyphenyl]boronic Acid]: the IC50 is 4.07 nM.

In the case of `C[C@@H]1C[C@@H](Oc2ccc(B(O)O)cc2-c2ccc3c(N)cnnc3c2)C[C@H](C)O1` [Example 121, [3-(4-aminocinnolin-7-yl)-4-{[(2R,4S,6S)-2,6-dimethyloxan-4-yl]oxy}phenyl]boronic Acid], the IC50 is 4.9 nM.

Consider `CC1Cc2ccc(-c3ccc4c(N)cnnc4c3)cc2B(O)O1` (single isomer, unassigned) [Example 94], for which the IC50 is 1.91 nM.

Turning to `Nc1nnc(C2CC2)c2cc(-c3cccc(B(O)O)c3)ccc12` [Example 11, [3-(1-amino-4-cyclopropylphthalazin-6-yl)phenyl]boronic Acid Formic Acid Salt], the IC50 was 214 nM.

Take `Cc1nnc(N)c2ccc(-c3cc(B(O)O)cc(P(C)(C)=O)c3)cc12` [Example 40, [3-(1-amino-4-methylphthalazin-6-yl)-5-dimethylphosphorylphenyl]boronic Acid Formic Acid Salt]: the IC50 is 1.02 nM.

On to `Cc1nnc(N)c2ccc(-c3cc(B(O)O)cc4ccoc34)cc12` [Example 104, [7-(1-amino-4-methylphthalazin-6-yl)-1-benzofuran-5-yl]boronic Acid], for which the IC50 is 0.851 nM.

Consider `COc1ccc(B(O)O)cc1-c1cnc2cnccc2c1` [Example 139, [4-methoxy-3-(1,7-naphthyridin-3-yl)phenyl]boronic Acid], for which the IC50 is > 25100 nM.

For the molecule `COc1ccc(B(O)O)cc1-c1cc(F)c2c(N)cnnc2c1` [Example 31, [3-(4-amino-5-fluorocinnoline-7-yl)-4-methoxyphenyl]boronic Acid], the IC50 is 15.1 nM.

Take `Cc1nc2c(-c3ccc4c(N)cnnc4c3)cc(B(O)O)cc2o1` [Example 119, [4-(4-aminocinnolin-7-yl)-2-methyl-1,3-benzoxazol-6-yl]boronic Acid Formic Acid Salt]: the IC50 is 0.646 nM.

As for `Nc1cnnc2cc(-c3cc(B(O)O)ccc3OCC(F)(F)F)ccc12` [Example 118, [3-(4-aminocinnolin-7-yl)-4-(2,2,2-trifluoroethoxy)phenyl]boronic Acid Formic Acid Salt], the IC50 was 1.1 nM.

Regarding `CNc1cnnc2cc(-c3cc(B(O)O)ccc3OC)ccc12` [Example 75, [4-methoxy-3-[4-(methylamino)cinnolin-7-yl]phenyl]boronic Acid], the IC50 was 224 nM.

As to `Nc1cnnc2cc(-c3cc(B(O)O)ccc3Oc3cncs3)ccc12` [Example 168, [3-(4-aminocinnolin-7-yl)-4-(1,3-thiazol-5-yloxy)phenyl]boronic Acid Formic Acid Salt], the IC50 was 1.32 nM.

For the molecule `Cc1nnc(N)c2ccc(-c3cncc(B(O)O)c3)cc12` [Example 17, [5-(1-amino-4-methylphthalazin-6-yl)pyridin-3-yl]boronic Acid], the IC50 is 1.74 nM.

For the molecule `Cc1nnc(N)c2ccc(-c3cc(B(O)O)cnc3C(F)(F)F)cc12` [Example 84, [5-(1-amino-4-methylphthalazin-6-yl)-6-(trifluoromethyl)pyridin-3-yl]boronic Acid], the IC50 was 11.7 nM.

`Nc1cnnc2cc(-c3ccc(CC(=O)O)c(B(O)O)c3)ccc12` [Example 127, 2-[4-(4-aminocinnolin-7-yl)-2-(dihydroxyboranyl)phenyl]acetic Acid]: the IC50 was 13.2 nM.

As for `Cc1nnc(N)c2ccc(-c3ccc4c(c3)B(O)OC(C)C4)cc12` (single isomer, unassigned) [Example 73, 6-(1-hydroxy-3-methyl-3,4-dihydro-2,1-benzoxazonin-7-yl)-4-methylphthalazin-1-amine], the IC50 was 0.912 nM.

With `COc1ncc(B(O)O)cc1-c1ccc2c(N)nnc(C)c2c1` [Example 30, [5-(1-amino-4-methylphthalazin-6-yl)-6-methoxypyridin-3-yl]boronic Acid], the IC50 is 2.04 nM.

Consider `COc1cc2c(cc1-c1ccc3c(N)nnc(C)c3c1)B(O)OCC2` [Example 32, 6-(1-hydroxy-6-methoxy-3,4-dihydro-2,1-benzoxazonin-7-yl)-4-methylphthalazin-1-amine Formic Acid Salt], for which the IC50 is 4.68 nM.

As to `Nc1cnnc2cc(-c3cc(B(O)O)ccc3OCC3(C(F)(F)F)CC3)ccc12` [Example 91, [3-(4-aminocinnolin-7-yl)-4-{[1-(trifluoromethyl)cyclopropyl]methoxy}phenyl]boronic Acid], the IC50 was 1.62 nM.
